{
  "source": "patent US20100256402A1",
  "about": "“NOVEL SOLVATE” (Sandoz AG, priority 2007, published 2010)",
  "type_in_all_cases": "physicochemical",
  "key": {"[1]": {"experiment": "Stability after storing different forms of Tigecycline at 80° C. for 7 days", "details": "for Total impurities ambient conditions / 4-Epi-Tigecycline ambient conditions: ambient conditions (before storage); for 4-Epi-Tigecycline 7 days at 80° C. / Total impurities 7 days at 80° C.: after storing 7 days at 80° C."}, "[2]": {"experiment": "Water solubility testing (saturated solution in distilled water, UV-vis 347 nm)", "details": "for Concentration (water solubility): 30 min", "procedure": "A UV-vis Lambda 35 spectrophotometer (Perkin-Elmer) was used (A=347 nm, 1.0 cm quartz cells). Perkin Elmer® UV WinLab-5.1 software was used.\nA saturated solution of Tigecycline in distilled water was prepared and the suspension was stirred at room temperature for 30 minutes with a stirring speed of 1000 U/min. The suspension was filtrated through a 0.45 μm filter. Finally the resulting solution was diluted 10000-fold and measured against water at a wavelength of 347 nm."}, "[3]": {"experiment": "Water content and hygroscopicity, open storage for 24 hours at 80% relative humidity", "details": "for water content 1 day at 80% rH: open storage 1 day at 80% rH; for water uptake 1 day at 80% rH: open storage for 24 hours at 80% relative humidity", "excerpt": "Furthermore suitable crystalline forms of Tigecycline should be low hygroscopic, as water uptake may cause the formation of undesired byproducts like e.g. 4-Epi-Tigecycline. […] Therefore crystalline form X is less hygroscopic than forms I, II, Ill and V of WO 2006/128150 and also less hygroscopic than form I of WO 2007/127292."}},
  "data": [
    {"smiles": "CN(C)c1cc(NC(=O)CNC(C)(C)C)c(O)c2c1C[C@H]1C[C@H]3[C@H](N(C)C)C(O)=C(C(N)=O)C(=O)[C@@]3(O)C(O)=C1C2=O", "note": "[WO 2006/128150 II, Tigecycline]", "values": [
      {"measurement": "Total impurities ambient conditions", "setting": "[1]", "result": 1.6, "unit": "%"},
      {"measurement": "Concentration (water solubility)", "setting": "[2]", "result": 170, "unit": "mg/mL"}
    ]},
    {"smiles": "CN(C)c1cc(NC(=O)CNC(C)(C)C)c(O)c2c1C[C@H]1C[C@H]3[C@H](N(C)C)C(O)=C(C(N)=O)C(=O)[C@@]3(O)C(O)=C1C2=O", "note": "[WO 2007/127292 II, Tigecycline]", "values": [
      {"measurement": "water content [%] ambient conditions", "setting": "[3]", "result": 0.18, "unit": "%"},
      {"measurement": "water content 1 day at 80% rH", "setting": "[3]", "result": 0.25, "unit": "%"},
      {"measurement": "water uptake 1 day at 80% rH", "setting": "[3]", "result": 0.07, "unit": "%"},
      {"measurement": "4-Epi-Tigecycline 7 days at 80° C.", "setting": "[1]; listed as WO 2007/127792 II", "result": 0.38, "unit": "%"},
      {"measurement": "Total impurities 7 days at 80° C.", "setting": "[1]; listed as WO 2007/127792 II", "result": 0.91, "unit": "%"},
      {"measurement": "4-Epi-Tigecycline ambient conditions", "setting": "[1]; listed as WO 2007/127792 II", "result": 0.17, "unit": "%"},
      {"measurement": "Total impurities ambient conditions", "setting": "[1]; listed as WO 2007/127792 II", "result": 0.24, "unit": "%"}
    ]},
    {"smiles": "CN(C)c1cc(NC(=O)CNC(C)(C)C)c(O)c2c1C[C@H]1C[C@H]3[C@H](N(C)C)C(O)=C(C(N)=O)C(=O)[C@@]3(O)C(O)=C1C2=O", "note": "[WO 2006/128150 I, Tigecycline]", "values": [
      {"measurement": "water uptake 1 day at 80% rH", "setting": "[3]", "result": 3.00, "unit": "%"},
      {"measurement": "4-Epi-Tigecycline ambient conditions", "setting": "[1]", "result": 0.36, "unit": "%"},
      {"measurement": "Total impurities ambient conditions", "setting": "[1]", "result": 0.75, "unit": "%"},
      {"measurement": "Concentration (water solubility)", "setting": "[2]", "result": 201, "unit": "mg/mL"}
    ]},
    {"smiles": "CN(C)c1cc(NC(=O)CNC(C)(C)C)c(O)c2c1C[C@H]1C[C@H]3[C@H](N(C)C)C(O)=C(C(N)=O)C(=O)[C@@]3(O)C(O)=C1C2=O", "note": "[X, Tigecycline]", "values": [
      {"measurement": "water content [%] ambient conditions", "setting": "[3]", "result": 0.29, "unit": "%"},
      {"measurement": "water content 1 day at 80% rH", "setting": "[3]", "result": 0.86, "unit": "%"},
      {"measurement": "water uptake 1 day at 80% rH", "setting": "[3]", "result": 0.57, "unit": "%"},
      {"measurement": "water uptake 1 day at 80% rH", "setting": "[3]; listed as form X", "result": 0.57, "unit": "%"},
      {"measurement": "4-Epi-Tigecycline 7 days at 80° C.", "setting": "[1]", "result": 0.79, "unit": "%"},
      {"measurement": "Total impurities 7 days at 80° C.", "setting": "[1]", "result": 3.48, "unit": "%"},
      {"measurement": "4-Epi-Tigecycline ambient conditions", "setting": "[1]", "result": 0.2, "unit": "%"},
      {"measurement": "Total impurities ambient conditions", "setting": "[1]", "result": 0.58, "unit": "%"},
      {"measurement": "Concentration (water solubility)", "setting": "[2]", "result": 162, "unit": "mg/mL"}
    ]},
    {"smiles": "CN(C)c1cc(NC(=O)CNC(C)(C)C)c(O)c2c1C[C@H]1C[C@H]3[C@H](N(C)C)C(O)=C(C(N)=O)C(=O)[C@@]3(O)C(O)=C1C2=O", "note": "[WO 2006/128150 III, Tigecycline]", "values": [
      {"measurement": "water content [%] ambient conditions", "setting": "[3]", "result": 0.69, "unit": "%"},
      {"measurement": "4-Epi-Tigecycline ambient conditions", "setting": "[1]", "result": 0.16, "unit": "%"},
      {"measurement": "Total impurities ambient conditions", "setting": "[1]", "result": 0.16, "unit": "%"},
      {"measurement": "Concentration (water solubility)", "setting": "[2]", "result": 174, "unit": "mg/mL"}
    ]},
    {"smiles": "CN(C)c1cc(NC(=O)CNC(C)(C)C)c(O)c2c1C[C@H]1C[C@H]3[C@H](N(C)C)C(O)=C(C(N)=O)C(=O)[C@@]3(O)C(O)=C1C2=O", "note": "[WO 2006/128150 IV, Tigecycline]", "values": [
      {"measurement": "water content [%] ambient conditions", "setting": "[3]", "result": 2.90, "unit": "%"},
      {"measurement": "water uptake 1 day at 80% rH", "setting": "[3]", "result": 0.43, "unit": "%"},
      {"measurement": "4-Epi-Tigecycline 7 days at 80° C.", "setting": "[1]", "result": 0.38, "unit": "%"},
      {"measurement": "Total impurities 7 days at 80° C.", "setting": "[1]", "result": 0.87, "unit": "%"},
      {"measurement": "4-Epi-Tigecycline ambient conditions", "setting": "[1]", "result": 0.23, "unit": "%"},
      {"measurement": "Total impurities ambient conditions", "setting": "[1]", "result": 0.4, "unit": "%"},
      {"measurement": "solubility at 30 min", "setting": "[2]; distilled water, water, thermodynamic from solid, distilled water, room temperature, stirred 30 minutes, 0.45 μm filter, read-out: Concentration (water solubility)", "result": 322, "unit": "mg/mL"}
    ]},
    {"smiles": "CN(C)c1cc(NC(=O)CNC(C)(C)C)c(O)c2c1C[C@H]1C[C@H]3[C@H](N(C)C)C(O)=C(C(N)=O)C(=O)[C@@]3(O)C(O)=C1C2=O", "note": "[WO 2006/128150 V, Tigecycline]", "values": [
      {"measurement": "water content [%] ambient conditions", "setting": "[3]", "result": 0.19, "unit": "%"},
      {"measurement": "4-Epi-Tigecycline 7 days at 80° C.", "setting": "[1]", "result": 0.18, "unit": "%"},
      {"measurement": "Total impurities 7 days at 80° C.", "setting": "[1]", "result": 0.37, "unit": "%"},
      {"measurement": "4-Epi-Tigecycline ambient conditions", "setting": "[1]", "result": "< 0.05", "unit": "%"},
      {"measurement": "Total impurities ambient conditions", "setting": "[1]", "result": 0.22, "unit": "%"}
    ]},
    {"smiles": "CN(C)c1cc(NC(=O)CNC(C)(C)C)c(O)c2c1C[C@H]1C[C@H]3[C@H](N(C)C)C(O)=C(C(N)=O)C(=O)[C@@]3(O)C(O)=C1C2=O", "note": "[WO 2007/127292 I, Tigecycline]", "values": [
      {"measurement": "water content [%] ambient conditions", "setting": "[3]", "result": 0.13, "unit": "%"},
      {"measurement": "water content 1 day at 80% rH", "setting": "[3]", "result": 6.39, "unit": "%"},
      {"measurement": "water uptake 1 day at 80% rH", "setting": "[3]", "result": 6.26, "unit": "%"},
      {"measurement": "water uptake 1 day at 80% rH", "setting": "[3]; listed as form I of WO 2007/127292", "result": 6.26, "unit": "%"},
      {"measurement": "4-Epi-Tigecycline 7 days at 80° C.", "setting": "[1]; listed as WO 2007/127792 I", "result": 1.26, "unit": "%"},
      {"measurement": "Total impurities 7 days at 80° C.", "setting": "[1]; listed as WO 2007/127792 I", "result": 2.22, "unit": "%"},
      {"measurement": "4-Epi-Tigecycline ambient conditions", "setting": "[1]; listed as WO 2007/127792 I", "result": 0.34, "unit": "%"},
      {"measurement": "Total impurities ambient conditions", "setting": "[1]; listed as WO 2007/127792 I", "result": 0.59, "unit": "%"},
      {"measurement": "Concentration (water solubility)", "setting": "[2]", "result": 54, "unit": "mg/mL"}
    ]}
  ]
}
